Laboratory results from patent US20260183274A1, “PDK1 REGULATORY COMPOUND AND COMPOSITION CONTAINING THE SAME” (PROVIBIO CO., LTD., priority 2024, published 2026).

System: T cells isolated from mouse spleens
Experiment: T cell proliferation inhibition (CFSE flow cytometry, anti-CD3/anti-CD28 stimulation)
Format: cell-based
Conditions: mouse spleen T cells, 3 days; for inhibition at 0.01 µM / inhibition at 0.1 µM / inhibition at 1 µM / inhibition at 10 µM / inhibition at 30 µM / inhibition at 50 µM: Mus musculus, T-cell, 72 h, read-out: Proliferation inhibition rate (%)
Experimental: To verify the T cell proliferation inhibitory effect of the compounds according to the present invention, the following experiment was performed based on flow cytometry analysis using carboxyfluorescein diacetate succinimidyl ester (CFSE), a fluorescent dye that binds to intracellular molecules via covalent bonds.
Spleens were extracted from 7-week-old C57BL/6 mice, ground, and then separated into single cells using a strainer (40 μm pore size, SPL). Red blood cells were removed using ACK (Ammonium-Chloride-Potassium) lysis buffer to isolate white blood cells.
Finally, using a MACS Magnetic Stand and LS column, T cells were isolated from the spleen.
The T cells isolated from the spleen were resuspended in 1 mL of free medium (RPMI-1640+200 U/mL penicillin+200 μg/mL streptomycin), and 0.3 μL of CFSE (10 mM) was added. The mixture was incubated at 37° C. for 5 minutes.
Free medium (10 mL) was added to stop the reaction, and the cells were centrifuged to obtain the cell pellet.
RPMI 1640 medium containing 10% FBS, 100 U/mL penicillin, 100 μg/mL streptomycin, and resuspended the cells. The cells were then seeded into a 96-well plate at a density of 2×10^5 cells per well and activated with CD3 and CD28 antibodies (0.5 μg/mL each) to activate T cells.
The compound diluted in DMSO was added at concentrations of 10 nM, 100 nM, 1 μM, 10 μM, 30 μM, and 50 μM, with three wells per concentration, and cultured at 37° C. and 5% CO2 for three days. The cells were then analyzed using a FACS Canto instrument.
The proliferation inhibition rate (%) was calculated using the following formula: […]

| SMILES | Proliferation inhibition rate (%) (compound 100 nM) | Proliferation inhibition rate (%) (compound 1 μM) | Proliferation inhibition rate (%) (compound 10 μM) | Proliferation inhibition rate (%) (compound 30 μM) | Proliferation inhibition rate (%) (compound 50 μM) | inhibition at 0.01 µM (compound 10 nM) | inhibition at 0.1 µM (compound 100 nM) | inhibition at 1 µM (compound 1 μM) | inhibition at 10 µM (compound 10 μM) | inhibition at 30 µM (compound 30 μM) | inhibition at 50 µM (compound 50 μM) | other results |
| --- | --- | --- | --- | --- | --- | --- | --- | --- | --- | --- | --- | --- |
| Nc1nc(NC(=O)CCCCCCCCCCCCN2CCC(O)CC2)nc2nc[nH]c12 [Compound 13, 12-(4-hydroxypiperidin-1-yl)dodecyl-N-(6-aminopurine-2-yl) carboxamide] | – | – | – | – | – | – | – | – | – | – | – | Proliferation inhibition rate (%) (compound 10 nM, listed as GO87, 0.01 µM): 9.13%; Proliferation inhibition rate (%) (compound 100 nM, listed as GO87, 0.1 µM): 1.71%; Proliferation inhibition rate (%) (compound 10 μM, listed as GO87, 10 µM): 81.15% |
| Nc1ncccc1C(=O)NCCCCCCCCCCCCN1CCC2CCCCC2C1 (stereo not shown) [Compound 16, 2-Amino-N-(12-(octahydroisoquinolin-2 (1H)-yl)dodecyl) nicotinamide] | −2.93% | 100.00% | 100.00% | 100.00% | 100.00% | – | – | – | – | – | – | Proliferation inhibition rate (%) (compound 10 nM): 4.13% |
| Nc1ncccc1C(=O)NCCCCCCCCCCCCN1CCc2ccccc2C1 [Compound 17, 2-Amino-N-(12-(3,4-dihydroisoquinolin-2 (1H)-yl)dodecyl) nicotinamide] | – | – | – | – | – | – | – | – | – | – | – | Proliferation inhibition rate (%) (compound 10 nM, listed as PBK-2024-004, 0.01 µM): 0.00%; Proliferation inhibition rate (%) (compound 100 nM, listed as PBK-2024-004, 0.1 µM): −14.00%; Proliferation inhibition rate (%) (compound 1 μM, listed as PBK-2024-004, 1 µM): 100.00%; Proliferation inhibition rate (%) (compound 10 μM, listed as PBK-2024-004, 10 µM): 100.00% |
| CN(CCCCCCCCCCCCNC(=O)c1cccnc1N)C1CCCCC1 [Compound 34, 2-Amino-N-(12-(cyclohexyl(methyl)amino)dodecyl) nicotinamide] | 100.00% | 100.00% | 100.00% | 100.00% | 100.00% | – | – | – | – | – | – | Proliferation inhibition rate (%) (compound 10 nM): 2.08% |
| CC1CN(CCCCCCCCCCCCNC(=O)c2cccnc2N)C(C)CN1.Cl (stereo not shown) [Compound 36, 2-Amino-N-(12-(2,5-dimethylpiperazin-1-yl)dodecyl) nicotinamide hydrochloride] | 100.00% | 100.00% | 100.00% | 100.00% | 100.00% | – | – | – | – | – | – | Proliferation inhibition rate (%) (compound 10 nM): −38.89% |
| Nc1ncccc1C(=O)NCCCCCCCCCCCCN1CCC(O)CC1 [Compound 48, 2-Amino-N-(12-(4-hydroxypiperidin-1-yl)dodecyl) nicotinamide] | 100.00% | 100.00% | 100.00% | 100.00% | 100.00% | – | – | – | – | – | – | Proliferation inhibition rate (%) (compound 10 nM, listed as PBK-2025-012, 0.01 µM): −18.31% |
| CN(CCCCCCCCCCCCNC(=O)c1cccnc1N)C(C)(C)C [Compound 53, 2-Amino-N-(12-(tert-butyl(methyl)amino)dodecyl) nicotinamide] | 100.00% | 100.00% | 100.00% | 100.00% | 100.00% | – | – | – | – | – | – | Proliferation inhibition rate (%) (compound 10 nM): −26.59% |
| O=C(NCCCCCCCCCCCCF)c1cccnc1Br [Compound 58, 2-Bromo-N-(12-fluoro-dodecyl)-nicotinamide] | – | – | – | – | – | -4.38% | 1.78% | 1.92% | 20% | 78.9% | 95.8% | – |
| O=C(NCCCCCCCCCCCCF)c1ccncc1Nc1cccc(C(F)(F)F)c1 [Compound 59, N-(12-fluoro-dodecyl)-3-(3-trifluoromethyl-phenylamino)-isonicotinamide] | – | – | – | – | – | 0% | 0% | 0% | -8.32% | 78.4% | 99.8% | – |
| O=C(NCCCCCCCCCCCCF)c1cnccc1Cl [Compound 60, 4-Chloro-N-(12-fluoro-dodecyl)-nicotinamide] | – | – | – | – | – | -1.92% | 8.77% | 6.85% | 63.5% | 100% | 100% | – |
| CS(=O)(=O)c1ncccc1C(=O)NCCCCCCCCCCCCF [Compound 67, N-(12-fluoro-dodecyl)-2-methylsulfonyl-nicotinamide] | – | – | – | – | – | 0% | 0% | 0% | -3.83% | 73.8% | 100% | – |
| O=C(NCCCCCCCCCCCCF)c1ccncc1I [Compound 76, N-(12-fluoro-dodecyl)-3-iodo-isonicotinamide] | – | – | – | – | – | 0% | 0% | 0% | -4.95% | 23.7% | 97.8% | – |
| N#CCCCCCCCCCCNC(=O)c1ccccc1Br [Compound 77, 2-Bromo-N-(10-cyano-decyl)benzamide] | – | – | – | – | – | 1.51% | -3.97% | 15.3% | 2.09% | 3.8% | 32.2% | – |
| Nc1ncccc1C(=O)NCCCN1CCOCC1 [Compound 78, 2-amino-N-(3-morpholin-4-yl-propyl)nicotinamide] | – | – | – | – | – | -7.14% | -4.19% | -3.73% | 0.68% | 4.51% | 8.76% | – |
| N#CCCCCCCCCCCNC(=O)c1cccnc1N [Compound 79, 2-amino-N-(10-cyano-decyl)-nicotinamide] | – | – | – | – | – | -2.19% | 1.23% | 7.12% | 11% | 27.9% | 34.7% | – |
| CCOC(=O)C1CCCN(CCCCCCCCCCCCNC(=O)c2cccnc2N)C1 (stereo not shown) [Compound 92, ethyl 1-(12-(2-aminonicotinamido)dodecyl)piperidine-3-carboxylate] | – | – | – | – | – | -9.65% | 100% | 100% | 100% | 100% | 100% | – |
| COC(=O)C1CCN(CCCCCCCCCCCCNC(=O)c2cccnc2N)CC1 [Compound 93, methyl 1-(12-(2-aminonicotinamido)dodecyl)piperidine-4-carboxylate] | – | – | – | – | – | -12.9% | 100% | 100% | 100% | 100% | 100% | – |
| COC1CCN(CCCCCCCCCCCCNC(=O)c2cccnc2N)CC1 [Compound 94, 2-amino-N-(12-(4-methoxypiperidin-1-yl)dodecyl) nicotinamide] | 100.00% | 100.00% | 100.00% | 100.00% | 100.00% | – | – | – | – | – | – | Proliferation inhibition rate (%) (compound 10 nM): −25.44% |
| COCCN1CCN(CCCCCCCCCCCCNC(=O)c2cccnc2N)CC1 [Compound 95, 2-amino-N-(12-(4-(2-methoxyethyl)piperazin-1-yl)dodecyl)nicotinamide] | – | – | – | – | – | 94.4% | 100% | 100% | 100% | 100% | 100% | – |
| C=CCN(C)CCCCCCCCCCCCNC(=O)c1cccnc1N [Compound 96, N-(12-(allyl(methyl)amino)dodecyl)-2-aminonicotinamide] | – | – | – | – | – | -0.58% | 100% | 100% | 100% | 100% | 100% | – |
| Nc1ncccc1C(=O)NCCCCCCCCCCCCN1CCN(C=O)CC1 [Compound 97, 2-amino-N-(12-(4-formylpiperazin-1-yl)dodecyl) nicotinamide] | 40.64% | 100.00% | 100.00% | 100.00% | 100.00% | – | – | – | – | – | – | Proliferation inhibition rate (%) (compound 10 nM): 3.51% |
